# Reference: paper PMC8264935 (ACS Omega, 2021)
# Test system: CbTA (ω-transaminase from Chloroflexi bacterium)
# Test: HPLC initial rate, Michaelis-Menten nonlinear fit
# Format: biochemical, Chloroflexota bacterium
# Details: 0.02 mM PLP, glycine-NaOH pH 8.5, 45 °C
Km (20 mM pyruvate co-substrate),Km (20 mM (R)-MBA co-substrate),Structure (SMILES)
14.7 mM,,C[C@@H](N)c1ccccc1 [(R)-MBA]
,2.83 mM,"CC(=O)C(=O)O [C1, pyruvate]"
